Laboratory results reported in US8304223B2, “Isoforms of pig liver esterase” (Enzymicals AG, priority 2007, dated 2012).
Read-outs that look alike come from different tables or passages of the source.

What was measured:
[1] = tested on: PLE 3; test: Influence of inhibitors, remaining activity by pNPA assay; type: biochemical, pig; settings: 25° C.
Procedure: (§1) Esterase activity was determined spectrophotometrically in sodium phosphate buffer (50 mM) by means of p-nitrophenyl acetate (10 mM, dissolved in dimethyl sulfoxide) as substrate. The amount of p-nitrophenol generated was determined at a wavelength of 410 nm (ε=15*10^3 M^−1 cm^−1) at RT and pH 7.5. 1 unit (U) is defined as the amount of enzyme capable of converting 1 μM p-nitrophenol per minute under analytical conditions (Krebsfänger, N., et. al., (1998) Enzyme Microb. Technol, 22, 641-646).
(§2) The inhibitability of the new PLE variants was determined by treating the crude extracts with any of three esterase inhibitors. […] Samples were taken at certain points in time and the remaining esterase activity was determined by the pNPA assay.

[2] = tested on: PLE 4; test: as above; type: biochemical, pig; settings: 25° C.
Procedure: as §1, §2

[3] = tested on: PLE 5; test: as above; type: biochemical, pig; settings: 25° C.
Procedure: as §1, §2

[4] = target: T1, PLE 1 (γ-PLE) (Sus scrofa, UniProt Q29550); test: biochemical; type: biochemical, pig; settings: 25° C.; for Remaining activity in %: inhibitor 1 mM; for remaining activity at 10 µM: inhibitor 0.01 mM
T1 construct: made in house; host or cells: E. coli Origami (DE3) with pGro7 (GroEL/GroES coexpression), crude extract
T1 sequence (Q29550 with tags, fused parts or gaps): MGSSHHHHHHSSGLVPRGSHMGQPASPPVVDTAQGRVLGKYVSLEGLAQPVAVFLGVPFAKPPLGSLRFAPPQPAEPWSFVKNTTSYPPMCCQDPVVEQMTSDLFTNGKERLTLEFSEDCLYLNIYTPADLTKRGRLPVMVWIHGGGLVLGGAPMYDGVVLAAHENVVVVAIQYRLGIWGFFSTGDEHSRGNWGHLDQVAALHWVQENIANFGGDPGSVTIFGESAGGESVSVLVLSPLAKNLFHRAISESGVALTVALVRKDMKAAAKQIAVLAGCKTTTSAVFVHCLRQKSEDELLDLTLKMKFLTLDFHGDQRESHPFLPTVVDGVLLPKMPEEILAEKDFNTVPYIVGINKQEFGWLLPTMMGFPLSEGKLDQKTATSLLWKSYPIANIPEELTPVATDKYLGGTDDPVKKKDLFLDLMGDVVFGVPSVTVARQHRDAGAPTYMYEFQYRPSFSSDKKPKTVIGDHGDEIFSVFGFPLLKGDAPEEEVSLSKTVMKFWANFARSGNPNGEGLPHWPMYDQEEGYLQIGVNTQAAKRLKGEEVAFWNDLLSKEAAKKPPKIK
Procedure: as §1, §2

[5] = target: T2, PLE 2 (Sus scrofa, UniProt Q29550, F477A/K481R/L479F); test: biochemical; type: biochemical, pig; settings: 25° C.; for Remaining activity in %: inhibitor 1 mM; for remaining activity at 10 µM: inhibitor 0.01 mM
T2 construct: made in house; host or cells: E. coli Origami (DE3) with pGro7 (GroEL/GroES coexpression), crude extract
T2 sequence (Q29550 19-562 F477A/L479F/K481R): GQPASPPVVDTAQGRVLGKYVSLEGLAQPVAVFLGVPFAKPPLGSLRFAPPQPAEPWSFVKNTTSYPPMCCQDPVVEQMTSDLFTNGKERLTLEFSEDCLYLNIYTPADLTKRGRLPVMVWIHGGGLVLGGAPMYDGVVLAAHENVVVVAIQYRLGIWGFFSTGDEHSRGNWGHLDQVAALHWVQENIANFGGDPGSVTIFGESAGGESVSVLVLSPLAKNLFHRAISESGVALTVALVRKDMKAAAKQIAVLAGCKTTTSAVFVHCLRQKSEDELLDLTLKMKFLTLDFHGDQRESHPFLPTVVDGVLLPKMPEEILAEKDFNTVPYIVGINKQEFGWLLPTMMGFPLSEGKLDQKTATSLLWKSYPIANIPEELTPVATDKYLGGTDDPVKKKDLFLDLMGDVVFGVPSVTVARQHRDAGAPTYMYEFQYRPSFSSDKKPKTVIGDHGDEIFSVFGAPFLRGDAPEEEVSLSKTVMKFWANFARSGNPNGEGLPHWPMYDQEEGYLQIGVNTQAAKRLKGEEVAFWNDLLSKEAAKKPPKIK
Procedure: as §1, §2

[6] = Kinetic resolution of the racemates of substrate 3; type: biochemical; settings: calculated according to Chen et al.
Procedure: (§3) Hydrolysis was carried out in 1.5 ml reaction vessels in a thermomixer (Thermomixer comfort Eppendorf, Hamburg, Germany) at 37° C. 0.5 U esterase crude extract (based on the pNPA assay) were used for 1 ml of substrate solution (10 mM in sodium phosphate buffer pH 7.5, 50 mM). The reaction was stopped by extracting the mixture with dichloromethane, and the organic phase was dried over anhydrous sodium sulfate.
(§4) Enantiomeric purity and conversion were determined by gas chromatography. Enantioselectivity of the variant enzymes was calculated according to Chen et al. (C. S. Chen, Y. Fujimoto, G. Girdaukas, C. J. Sih, J. Am. Chem. Soc. 1982, 104, 7294.).
(§5) For a more detailed description of the synthesis of the substrates and the retention times in GC analysis, see Musidlowska-Persson, A. and Bornscheuer, U. T., “Substrate Specificity of the γ-isoenzyme of recombinant pig liver esterase towards acetates of secondary alcohols” J. Mol. Catal. B. Enzym. 2002, 19-20, 129-133.

[7] = pH stat activity with achiral ester ethyl acetate; type: biochemical; settings: purified enzyme, pH stat at 37° C. and pH 7.5, 10 min
Procedure: (§6) Esterase substrate specificity was analyzed at constant pH. A known amount of esterase was added to an emulsion (20 mL) containing an ester substrate (5% (v/v); tributyrin, ethyl acetate, triolein or methyl butyrate) and gum arabic (2% (w/v)) at 37° C. The acid liberated was counter titrated automatically in a pH statiometer (Schott, Mainz, Germany) with 0.01 N NaOH in order to maintain a constant pH of 7.5. 1 unit (U) is defined as the amount of enzyme capable of generating 1 μM acid per minute under analytical conditions.

[8] = pNPA assay of esterase activity (crude extracts); type: biochemical; settings: crude extract, N-terminal His6 tag
Procedure: The chaperones were coexpressed with the PLE isoenzymes in 150 ml of LB medium containing 20 μg mL^−1 chloramphenicol and 50 μg mL^−1 ampicillin for plasmid selection. Chaperone expression was immediately initiated by adding 1 mg mL^−1 L-arabinose. PLE production was induced at OD600=0.5 by adding 40 μM IPTG. The cells were removed by centrifugation after 24 h, resuspended in 10 ml of sodium phosphate buffer (50 mM, pH 7.5) and disrupted using ultrasound. Cell debris was removed by centrifugation, and the supernatant was used for further experiments (crude cell extract). Protein content and esterase activity were determined according to Bradford or using the pNPA assay.
as §1

[9] = pH stat activity with achiral ester ethyl caprylate; type: biochemical; settings: purified enzyme, pH stat at 37° C. and pH 7.5, 10 min
Procedure: Esterase substrate specificity was analyzed at constant pH. […] The acid liberated was counter titrated automatically in a pH statiometer (Schott, Mainz, Germany) with 0.01 N NaOH in order to maintain a constant pH of 7.5. 1 unit (U) is defined as the amount of enzyme capable of generating 1 μM acid per minute under analytical conditions.

[10] = Kinetic resolution of the racemates of substrate 2; type: biochemical; settings: calculated according to Chen et al.
Procedure: as §3, §4, §5

[11] = pH stat activity with achiral ester triolein; type: biochemical; settings: purified enzyme, pH stat at 37° C. and pH 7.5, 10 min
Procedure: as §6

[12] = Kinetic resolution of the racemates of substrate 1; type: biochemical; settings: calculated according to Chen et al.
Procedure: as §3, §4, §5

[13] = pH stat activity with achiral ester tributyrin; type: biochemical; settings: purified enzyme, pH stat at 37° C. and pH 7.5, 10 min
Procedure: as §6

[14] = Native PAGE with Fast Red activity staining; type: biochemical; settings: crude extracts, Fast Red staining with α-naphthyl acetate
Procedure: A mixture containing the crude extract of recombinantly produced PLE (5-15 μL, corresponding to 0.05-0.15 U of pNPA analysis) was mixed with buffer solution (20% (w/v) glycerol; 0.0025% (w/v) bromophenol blue in dH2O) (5-10 μL). Aliquots thereof were separated on a native polyacrylamide gel (7.5%). For activity staining, the gel was incubated in a mixture of freshly prepared α-naphthyl acetate and Fast Red. Formation of a red complex between α-naphthol generated and Fast Red indicated hydrolytic activity of the esterase. (Krebsfänger, N., et. al., (1998) Enzyme Microb. Technol, 22, 641-646). The gel was then stained with Coomassie Brilliant Blue.
Esterase activity was checked by applying the crude extracts to a native gel which was then incubated in Fast Red solution with α-naphthyl acetate as substrate. This was followed by Coomassie staining (FIG. 4: Native PAGE of the crude extracts of PLE2, clone 12, PLE3, PLE4, PLE5, γPLE and the E. coli Origami pGro7 wild type (negative control). Left-hand side: Fast Red staining with α-naphthyl acetate, right-hand side: subsequent Coomassie Brilliant Blue staining).

[15] = pH stat activity with achiral ester methyl butyrate; type: biochemical; settings: purified enzyme, pH stat at 37° C. and pH 7.5, 10 min
Procedure: as §6

[16] = substrate 4; literature data (*); cited from earlier work

Molecule: [F-].[Na+] [NaF, sodium fluoride]
- Remaining activity in % ([1]; inhibitor 1 mM, 5 min): 44%
- Remaining activity in % ([1]; inhibitor 1 mM, 30 min): 46%
- Remaining activity in % ([2]; inhibitor 1 mM, 5 min): 64%
- Remaining activity in % ([2]; inhibitor 1 mM, 30 min): 66%
- Remaining activity in % ([3]; inhibitor 1 mM, 5 min): 83%
- Remaining activity in % ([3]; inhibitor 1 mM, 30 min): 88%
- Remaining activity in % ([4]; 5 min): 20%
- Remaining activity in % ([4]; 30 min): 21%
- Remaining activity in % ([5]; 5 min): 17%
- Remaining activity in % ([5]; 30 min): 15%

Molecule: O=S(=O)(F)Cc1ccccc1 [Phenylmethylsulfonyl fluoride (PMSF), phenylmethylsulfonyl fluoride]
- Remaining activity in % ([1]; inhibitor 0.01 mM, 1 min): 77%
- Remaining activity in % ([1]; inhibitor 0.01 mM, 5 min): 51%
- Remaining activity in % ([1]; inhibitor 0.01 mM, 30 min): 7%
- Remaining activity in % ([1]; inhibitor 0.01 mM, 60 min): 5%
- Remaining activity in % ([2]; inhibitor 0.01 mM, 1 min): 78%
- Remaining activity in % ([2]; inhibitor 0.01 mM, 5 min): 56%
- Remaining activity in % ([2]; inhibitor 0.01 mM, 30 min): 7%
- Remaining activity in % ([2]; inhibitor 0.01 mM, 60 min): 2%
- Remaining activity in % ([3]; inhibitor 0.01 mM, 1 min): 88%
- Remaining activity in % ([3]; inhibitor 0.01 mM, 5 min): 76%
- Remaining activity in % ([3]; inhibitor 0.01 mM, 30 min): 24%
- Remaining activity in % ([3]; inhibitor 0.01 mM, 60 min): 3%

Molecule: CNC(=O)Oc1ccc2c(c1)[C@]1(C)CCN(C)[C@@H]1N2C [Physostigmine, physostigmine]
- remaining activity at 10 µM ([4]; 1 min): 41%
- remaining activity at 10 µM ([4]; 5 min): 12%
- remaining activity at 10 µM ([4]; 30 min): 7%
- remaining activity at 10 µM ([5]; 1 min): 61%
- remaining activity at 10 µM ([5]; 5 min): 25%
- remaining activity at 10 µM ([5]; 30 min): 6%

B1: PLE 1: previously disclosed γ-isoenzyme of pig liver esterase (Seq. ID No. 2), recombinant from E. coli Origami with GroEL/ES (protein)
chain: T1 sequence (Q29550 with tags, fused parts or gaps)
modifications: Pig liver
- E (enantioselectivity) [6]: 72
- Specific activity, Ethyl acetate [7]: 38
- Volume activity [8]: 11 U/ml
- Specific activity, Ethyl caprylate [9]: 63
- E (enantioselectivity) [10]: 17
- Specific activity, Triolein [11]: 0
- E (enantioselectivity) [12]: 4
- Specific activity, Tributyrin [13]: 306
- Esterase activity (active bands) in native gel [14]: Active esterase bands are visible
- Specific activity, Methyl butyrate [15]: 57
- E (enantioselectivity) [16]: 17
